The record followed here is patent US5116855A, “Rhodanine derivatives and pharmaceutical compositions” (Nisshin Flour Milling Co., Ltd., priority 1989, dated 1992).

This test deals with T1, aldose reductase (Rattus norvegicus, UniProt P07943).
T1 construct: the lenses were excised and homogenized in cold distilled water; from tissue; host or cells: lens of male SD rats, homogenate supernatant (crude enzyme)
Kind of test: Inhibitory activity against aldose reductase (crude enzyme from rat lenses, NADPH oxidation at 340 nm, D,L-glyceraldehyde substrate). The note with it: aldose reductase from SD rat lenses, pH 6.2, 30° C.; for inhibition at 10 µM: pH 6.2, 10^-5 M; for inhibition at 10 µM / inhibition at 1 µM: read-out: Percentage of inhibition (%); for inhibition at 1 µM: pH 6.2, 10^-6 M. The test is classed as biochemical. The protocol: The compounds of the present invention were evaluated for the inhibitory activity against aldose reductase according to the following assay procedure.
Enzyme activity was assayed according to the modification [Biochemical Pharmacology, 25, 2505 (1976)] of the method described in J. Biol. Chem., 240, 877-882 (1965).
SD strain male rats were sacrificed by decapitation, the lenses were excised and homogenized in cold distilled water. The homogenate was then centrifuged and the supernatant was used as the crude aldose reductase solution.
Separately, a 0.1 M sodium phosphate buffer (pH 6.2) containing 0.4 M ammonium sulfate was prepared at 30° C. In this buffer were dissolved the present compound, the crude aldose reductase solution and nicotinamide-adenine dinucleotide phosphate, reduced form (NADPH). The mixture was preincubated at 30° C. for 3 minutes and the reaction was initiated by addition of D,L-glyceraldehyde. In this case, the concentration of the present compound dissolved was 10^-5 M and 10^-6 M, respectively. The total amount of the assay mixture was 1.0 ml, containing 0.16 mM of NADPH, 10 mM of D,L-glyceraldehyde and 0.010-0.016 units of aldose reductase.
The inhibitory activity of the present compounds against aldose reductase was measured using each 1.0 ml of the reaction mixture containing the present compound in the above concentration. In this measurement, the rate of NADPH oxidation was followed by recording the decrease in absorbance at 340 nm. The inhibitory activity of the present compounds against aldose reductase as measured was expressed in percentage of inhibition (%) as a relative activity based on a control value.

The term inhibition denotes how much of the control response was suppressed.

Turning to `COc1cc(CCC(C)=C2SC(=S)NC2=O)ccc1OCC(=O)O` [Example 69, 2-Methoxy-4-[3-(4-oxo-2-thioxo-5-thiazolinylidene)butyl]-phenoxyacetic acid], the inhibition at 10 µM is 78.4% and the inhibition at 1 µM came out at 46.4%.

For `CCOc1cc(C=CC(C)=C2SC(=S)NC2=O)ccc1OCC(=O)O` [Example 70], the inhibition at 10 µM is 87.4% and the inhibition at 1 µM amounted to 62.2%.

As to `CCOc1cc(CCC(C)=C2SC(=S)NC2=O)ccc1OCC(=O)O` [Example 71, 2-Ethoxy-4-[3-(4-oxo-2-thioxo-5-thiazolinylidene)butyl]phenoxyacetic acid], the inhibition at 10 µM turned out to be 73.8%.

As to `COc1cccc(C=CC(C)=C2SC(=S)NC2=O)c1OCC(=O)O` [Example 72, 2-Methoxy-6-[3-(4-oxo-2-thioxo-5-thiazolinylidene)-1-butenyl] phenoxyacetic acid], the inhibition at 10 µM came out at 80.1% and the inhibition at 1 µM was found to be 24.8%.

On to `COc1cccc(CCC(C)=C2SC(=S)NC2=O)c1OCC(=O)O` [Example 73, 2-Methoxy-6-(3-(4-oxo-2-thioxo-5-thiazolinylidene)butyl]phenoxyacetic acid], for which the inhibition at 10 µM is 59.2%.

As to `COc1cc(C=CC(C)=C2SC(=S)NC2=O)cc(OC)c1OCC(=O)O` [Example 74, 2,6-Dimethoxy-4-[3-(4-oxo-2-thioxo-5-thiazolinylidene)-1-butenyl]phenoxyacetic acid], the inhibition at 10 µM worked out at 74.3%.

On to `CC(C=Cc1cc(Cl)ccc1OCC(=O)O)=C1SC(=S)NC1=O` [Example 75, 4-Chloro-2-[3-(4-oxo-2-thioxo-5-thiazolinylidene)-1-butenyl]phenoxyacetic acid], for which the inhibition at 10 µM was found to be 95.3% and the inhibition at 1 µM stood at 87.6%.

`COc1cc(C=C(C)C=C2SC(=S)NC2=O)ccc1OCC(=O)O` [Example 76, 2-Methoxy-4-[2-methyl-3-(4-oxo-2-thioxo-5-thiazolinylidene)-1-propenyl]phenoxyacetic acid]: the inhibition at 10 µM is 88.5% and the inhibition at 1 µM was 58.6%.

For `CC(C=Cc1cc(C(C)C)c(OCC(=O)O)c(C(C)C)c1)=C1SC(=S)NC1=O` [Example 77, 2,6-Diisopropyl-4-[3-(4-oxo-2-thioxo-5-thiazolinylidene)-1-butenyl]phenoxyacetic acid], the inhibition at 10 µM came to 82.8% and the inhibition at 1 µM is 41.4%.

Regarding `COc1cc(C=CC(C)=C2SC(=S)N(C)C2=O)ccc1OCC(=O)O` [Example 78, 2-Methoxy-4-[3-(3-methyl-4-oxo-2-thioxo-5-thiazolinylidene)-1-butenyl]phenoxyacetic acid], the inhibition at 10 µM was 87.1% and the inhibition at 1 µM is 65.9%.

As to `CC(C=Cc1cc(Br)ccc1OCC(=O)O)=C1SC(=S)NC1=O` [Example 79, 4-Bromo-2-[3-(4-oxo-2-thioxo-5-thiazolinylidene)-1-butenyl]phenoxyacetic acid], the inhibition at 10 µM is 95.8% and the inhibition at 1 µM was 86.1%.

Take `CC(C=Cc1cc(Cl)cc(Cl)c1OCC(=O)O)=C1SC(=S)NC1=O` [Example 80, 2,4-Dichloro-6-[3-(4-oxo-2-thioxo-5-thiazolinylidene)-1-butenyl]phenoxyacetic acid]: the inhibition at 10 µM was found to be 86.6% and the inhibition at 1 µM was determined as 43%.

With `CC(C=Cc1cc(Br)cc(Br)c1OCC(=O)O)=C1SC(=S)NC1=O` [Example 81, 2,4-Dibromo-6-[3-(4-oxo-2-thioxo-5-thiazolinylidene)-1-butenyl]phenoxyacetic acid], the inhibition at 10 µM came to 75.4%.

As for `COc1ccc(C=CC(C)=C2SC(=S)NC2=O)cc1OCC(=O)O` [Example 82, 2-Methoxy-5-[3-(4-oxo-2-thioxo-5-thiazolinylidene)-1-butenyl]phenoxyacetic acid], the inhibition at 10 µM was found to be 67.6% and the inhibition at 1 µM amounted to 22.1%.

For `CCCC(=Cc1ccccc1OCC(=O)O)C=C1SC(=S)NC1=O` [Example 84, 2-[2-Propyl-3-(4-oxo-2-thioxo-5-thiazolinylidene)-1-propenyl]phenoxyacetic acid], the inhibition at 10 µM was 92% and the inhibition at 1 µM amounted to 77.6%.

For `CC(C=Cc1cc(C(C)C)ccc1OCC(=O)O)=C1SC(=S)NC1=O` [Example 85, 4-Isopropyl-2-[3-(4-oxo-2-thioxo-5-thiazolinylidene)-1-butenyl]phenoxyacetic acid], the inhibition at 10 µM is 92% and the inhibition at 1 µM stood at 77.6%.

Regarding `CC(=Cc1ccccc1OCC(=O)O)C=C1SC(=S)NC1=O` [Example 86, 2-[2-Methyl-3-(4-oxo-2-thioxo-5-thiazolinylidene)-1-propenyl]phenoxyacetic acid], the “Percentage of inhibition (%)” value came to 89.7% (10^-5 M) and 69.6% (10^-6 M).

On to `CC(C=Cc1cc(C)c(OCC(=O)O)c(C)c1)=C1SC(=S)NC1=O` [Example 87, 2,6-Dimethyl-4-[3-(4-oxo-2-thioxo-5-thiazolinylidene)-1-butenyl]phenoxyacetic acid], for which the inhibition at 10 µM worked out at 89.6% and the inhibition at 1 µM stood at 60.5%.

On to `COc1ccc(OCC(=O)O)c(C=CC(C)=C2SC(=S)NC2=O)c1` [Example 88, 4-Methoxy-2-[3-(4-oxo-2-thioxo-5-thiazolinylidene)-1-butenyl]phenoxyacetic acid], for which the inhibition at 10 µM was found to be 93.3% and the inhibition at 1 µM amounted to 79.1%.

For `CC(C=Cc1cc(C(F)(F)F)ccc1OCC(=O)O)=C1SC(=S)NC1=O` [Example 89, 4-Trifluoromethyl-2-[3-(4-oxo-2-thioxo-5-thiazolinylidene)-1-butenyl]phenoxyacetic acid], the inhibition at 10 µM worked out at 92.9% and the inhibition at 1 µM came out at 85.7%.

As to “Ethyl 4-[3-(4-oxo-2-thioxo-5-thiazolidinylidene)-1-butenyl]-methoxyphenoxyacetate [Example 15]”, the “Percentage of inhibition (%)” value reads like this: (10^-5 M) 66.7%; (10^-6 M) 35.3%.
